# Results published in patent US9006426B2, “Squaric acid derivatives as inhibitors of the nicotinamide” (Topotarget A/S, priority 2008, dated 2015).
# Where a name gives a salt, the structure may show the parent alone.
# System: A2780 cells
# Assay: In vitro cell proliferation assay (WST-1 assay)
# Type: cell-based
# Conditions: Homo sapiens, total incubation time 72 h, WST-1 reagent
# Procedure: In Vitro Cell Proliferation Assay (WST-1 Assay)
# A2780 cells were seeded in 96-well plates at 3×10^3 cells/well in 100 μL of culture medium, 8 wells were left empty for media only controls.
# After 24 h the compound titrations were performed, in a separate dilution plate, by serially diluting the compounds of general formula (I) in culture medium. A 100 μL of each dilution was added to the plated cells, this was done in triplicate, and controls (e.g. DMSO and blanks) were included. The plates were incubated for 24 h at 37° C. in a CO2 incubator. The compound titrations were repeated in a separate dilution plate after 24 h. The media plus compound from the assay plates were then aspirated. A 100 μL of media was then added to all wells, followed by 100 μL of each compound dilution. The plates were incubated for a further 48 h at 37° C. in a CO2 incubator (total incubation time 72 h). The number of viable cells was then assessed using Cell Proliferation Reagent WST-1. 10 μL of WST-1 reagent added to each well and incubated for one to four hours at 37° C. in CO2 incubator. The absorbance was measured (450 nm/690 nm).
# The activity of compounds of general formula (I) in reducing the number of viable cells was calculated as: % activity=[(S^c−B)/(S^o−B)]×100
# S^c denotes signal measured in the presence of test compound, S^o denotes signal detected in the absence of compound, and B denotes background signal, measured in blank wells containing medium only. Analyse data using GraphPad Prism.
# Results can be seen in Table 1, wherein IC50 is the concentration giving 50% activity.
row,SMILES,IC50 [nM]
1,"O=C(CCCCCCNc1c(Nc2ccncc2)c(=O)c1=O)N(OCCN1CCOCC1)C1CCCCC1 [Compound 1007, N-cyclohexyl-7-(3,4-dioxo-2-(pyridin-4-ylamino)cyclobut-1-enylamino)-N-(2-morpholinoethoxy)heptanamide]",0.03
2,"COCCOCCOCCN(OCCC1CCCCC1)S(=O)(=O)CCCCCCNc1c(Nc2ccncc2)c(=O)c1=O [Compound 1008, N-(2-cyclohexylethoxy)-6-(3,4-dioxo-2-(pyridin-4-ylamino)cyclobut-1-enylamino)-N-(2-(2-(2-methoxyethoxy)ethoxy)ethyl)hexane-1-sulfonamide]",0.48
3,"O=c1c(NCCCCCCS(=O)(=O)N(CCN2CCOCC2)OCCC2CCCCC2)c(Nc2ccncc2)c1=O [Compound 1009, N-(2-cyclohexylethoxy)-6-(3,4-dioxo-2-(pyridin-4-ylamino)cyclobut-1-enylamino)-N-(2-morpholinoethyl)hexane-1-sulfonamide]",0.43
4,"O=c1c(NCCCCCCS(=O)(=O)N(Cc2ccccc2)OCCC2CCCCC2)c(Nc2ccncc2)c1=O [Compound 1010, N-benzyl-N-(2-cyclohexylethoxy)-6-(3,4-dioxo-2-(pyridin-4-ylamino)cyclobut-1-enylamino)hexane-1-sulfonamide]",0.93
5,"CN(OCCC1CCCCC1)S(=O)(=O)CCCCCCNc1c(Nc2ccncc2)c(=O)c1=O [Compound 1011, N-(2-cyclohexylethoxy)-6-(3,4-dioxo-2-(pyridin-4-ylamino)cyclobut-1-enylamino)-N-methylhexane-1-sulfonamide]",0.085
6,"O=C(CCCCCCNc1c(Nc2ccncc2)c(=O)c1=O)N(Cc1ccccc1)OCCN1CCOCC1 [Compound 1016, N-benzyl-7-(3,4-dioxo-2-(pyridin-4-ylamino)cyclobut-1-enylamino)-N-(2-morpholinoethoxy)heptanamide]",0.56
7,"O=C(CCCCCCCNc1c(Nc2ccncc2)c(=O)c1=O)N(Cc1ccccc1)OCCN1CCOCC1 [Compound 1018, N-benzyl-8-(3,4-dioxo-2-(pyridin-4-ylamino)cyclobut-1-enylamino)-N-(2-morpholinoethoxy)octanamide]",0.26
8,"O=c1c(NCCCCCCS(=O)(=O)N(CCCN2CCOCC2)CCN2CCOCC2)c(Nc2ccncc2)c1=O [Compound 1019, 6-(3,4-dioxo-2-(pyridin-4-ylamino)cyclobut-1-enylamino)-N-(2-morpholinoethyl)-N-(3-morpholinopropyl)hexane-1-sulfonamide]",26
9,"O=c1c(NCCCCCCS(=O)(=O)N(CCN2CCOCC2)C2CCCCCC2)c(Nc2ccncc2)c1=O [Compound 1021, N-cycloheptyl-6-(3,4-dioxo-2-(pyridin-4-ylamino)cyclobut-1-enylamino)-N-(2-morpholinoethyl)hexane-1-sulfonamide]",0.25
10,"O=C(OCCCCCNc1c(Nc2ccncc2)c(=O)c1=O)N(OCCN1CCOCC1)C1CCCCC1 [Compound 1026, 5-(3,4-dioxo-2-(pyridin-4-ylamino)cyclobut-1-enylamino)pentyl cyclohexyl(2-morpholinoethoxy)carbamate]",0.6
11,"CN(C1CCCCCC1)S(=O)(=O)CCCCCCNc1c(Nc2ccncc2)c(=O)c1=O [Compound 1027, N-cycloheptyl-6-(3,4-dioxo-2-(pyridin-4-ylamino)cyclobut-1-enylamino)-N-methylhexane-1-sulfonamide]",0.08
12,"O=c1c(NCCCCCCS(=O)(=O)N2CCCCCC2)c(Nc2ccncc2)c1=O [Compound 1030, 3-(6-(azepan-1-ylsulfonyl)hexylamino)-4-(pyridin-4-ylamino)cyclobut-3-ene-1,2-dione]",0.53
13,"O=c1c(NCCCCCCS(=O)(=O)N2CCOCC2)c(Nc2ccncc2)c1=O [Compound 1031, 3-(6-(morpholinosulfonyl)hexylamino)-4-(pyridin-4-ylamino)cyclobut-3-ene-1,2-dione]",41.3
14,"O=C(CCCCCCNc1c(Nc2cccnc2)c(=O)c1=O)N(OCCN1CCOCC1)C1CCCCC1 [Compound 1033, N-cyclohexyl-7-(3,4-dioxo-2-(pyridin-3-ylamino)cyclobut-1-enylamino)-N-(morpholinoethoxy)heptanamide]",0.6
15,"O=C(NCCCCCNc1c(Nc2ccncc2)c(=O)c1=O)N(OCCN1CCOCC1)C1CCCCC1 [Compound 1039, 1-cyclohexyl-3-(5-(3,4-dioxo-2-(pyridin-4-ylamino)cyclobut-1-enylamino)pentyl)-1-(2-morphinethoxy)urea]",4.49
16,"CC(C)N(OCCN1CCOCC1)S(=O)(=O)CCCCCCNc1c(Nc2ccncc2)c(=O)c1=O [Compound 1047, 6-(3,4-dioxo-2-(pyridin-4-ylamino)cyclobut-1-enylamino)-N-isopropyl-N-(2-morpholinoethoxy)hexane-1-sulfonamide]",0.12
17,"O=c1c(NCCCCCCS(=O)(=O)N(CCCN2CCOCC2)C2CCCCC2)c(Nc2ccncc2)c1=O [Compound 1050, N-Cyclohexyl-6-(3,4-dioxo-2-(pyridin-4-ylamino)cyclobut-1-enylamino)-N-(3-morpholinopropyl)hexane-1-sulfonamide]",1.19
18,"O=c1c(NCCCCCCS(=O)(=O)N(OCCN2CCOCC2)C2CCCCC2)c(Nc2ccncc2)c1=O [Compound 1051, N-Cyclohexyl-6-(3,4-dioxo-2-(pyridin-4-ylamino)cyclobut-1-enylamino)-N-(2-morpholinoethoxy)hexane-1-sulfonamide oxalate]",0.45
19,"O=c1c(NCCCCCCCS(=O)(=O)N(OCCN2CCOCC2)C2CCCCC2)c(Nc2ccncc2)c1=O [Compound 1052, N-Cyclohexyl-7-(3,4-dioxo-2-(pyridin-4-ylamino)cyclobut-1-enylamino)-N-(2-morpholinoethoxy)heptane-1-sulfonamide]",0.3
20,"O=c1c(NCCCCCS(=O)(=O)N(OCCN2CCOCC2)C2CCCCC2)c(Nc2ccncc2)c1=O [Compound 1053, N-Cyclohexyl-5-(3,4-dioxo-2-(pyridin-4-ylamino)cyclobut-1-enylamino)-N-(2-morpholinoethoxy)pentane-1-sulfonamide]",0.5
21,"O=c1c(NCCCCCCS(=O)(=O)N(OCCN2CCOCC2)C2CCCC2)c(Nc2ccncc2)c1=O [Compound 1058, N-cyclopentyl-6-(3,4-dioxo-2-(pyridin-4-ylamino)cyclobut-1-enylamino)-N-(2-morpholinoethoxy)hexane-1-sulfonamide]",0.75
22,"O=c1c(NCCCCCCS(=O)(=O)N(OCCN2CCOCC2)C2CCCCCC2)c(Nc2ccncc2)c1=O [Compound 1060, N-cycloheptyl-6-(3,4-dioxo-2-(pyridin-4-ylamino)cyclobut-1-enylamino)-N-(2-morpholinoethoxy)hexane-1-sulfonamide]",0.69
23,"O=c1c(NCCCCCCS(=O)(=O)N(CCCN2CCOCC2)C2CCC2)c(Nc2ccncc2)c1=O [Compound 1062, N-cyclobutyl-6-(3,4-dioxo-2-(pyridin-4-ylamino)cyclobut-1-enylamino)-N-(3-morpholinopropyl)hexane-1-sulfonamide]",0.42
24,"O=c1c(NCCCCCCS(=O)(=O)N(CCN2CCOCC2)C2CCCCC2)c(Nc2ccncc2)c1=O [Compound 1067, N-cyclohexyl-6-(3,4-dioxo-2-(pyridin-4-ylamino)cyclobut-1-enylamino)-N-(2-morpholinoethyl)hexane-1-sulfonamide]",1.13
